Results: US20240272171A1, “Methods for Identification of Exchangeable MHC Binding Peptides and Methods of Use Thereof” (PhenomeX Inc., priority 2020, published 2024)
Blank lines part the entries; values can stand above or below the sequence they belong to.

Key:
HLA-A*02:01 [1] = molecular target: T1, HLA-A*02:01 (Homo sapiens, UniProt P04439, D140Y/D185E/D98H/E176V/E277Q/G131W/G231S/I119V/I121R/I166T/I218V/L300P/L318F/N151K/N90K/P208A/P217A/Q86G/Q94H/R138H/R169H/T345S); assay: Peptide binding and stability under culture conditions (Example 22); conditions: beads in T Cell Culture Media at 37° C.; W6/32 antibody MFI, exponential decay fit
Protocol: To assess the stability of the pMHC Class I-peptide antigen complexes under the conditions that are used to culture T Cells, pMHC Class I complexes were first bound to beads. Biotinylated HLA-A*02:01 complexes loaded with either […] (SEQ ID NO: 5) or […] (SEQ ID NO: 6) peptides were diluted to 0.83 micrograms/mL in Assay Buffer (PBS with 2 mM EDTA and 0.1% Bovine Serum Albumin). To 0.6 mL of the pMHC solutions in microcentrifuge tubes, […] Streptavidin-coated DynaBeads (M-280, ThermoFisher) were added. The beads were mixed in the pMHC solution for 4 minutes at 2,000 rpm on a ThermoMixer (Eppendorf). The pMHC-beads were then captured on a magnetic rack, and the solution containing unbound pMHC removed by aspiration. 1 mL of Assay Buffer was added to the tubes, and then aspirated. The beads were then resuspended in 0.1 mL of Assay Buffer. The beads were then stored at 4° C. until use. […]
Antibody binding to the beads was then detected on a FACSCelesta with High-Throughput Sampler (BD Biosciences). […] Approximately 25,000 bead events were recorded for each sample. The Median Fluorescence Intensity (MFI) in the APC channel for the pHLA-beads in each sample was then recorded. […] The half-lives for the pHLA complexes were then calculated from the fitted decay constant.

HLA-A*02:01 [2] = molecular target: T1, HLA-A*02:01; assay: Candidate in-place peptide exchange testing (loss of FITC signal, flow cytometry); format: binding; conditions: for suitability as in-place peptide (affinity and exchangeability): HLA-A*02:01, FIG. 29; for exchange efficiency: FITC in-place peptide, 1 micromolar pHLA, 20 micromolar incoming peptide LMYAKRAFV, 10 mM GlyCha, room temperature, 4 hour
From the text: Candidate peptides with a FITC-modified Lysine at Position 4 or 5 shown in Table 6 were purchased from a peptide manufacturer (Genscript). The fluorescent peptides were loaded into recombinant, biotinylated HLA-A*02:01 by a contract manufacturer (Biolegend). […] The peptide-HLA (pHLA) concentration in the reactions was 1 micromolar. The incoming peptide concentration was 20 micromolar.
For the incoming peptide, the peptide sequence […] […] This may be used as a model for candidate antigenic peptides, which need to displace an in-place peptide stabilizing the MHC (e.g., loaded into the MHC complex), in methods of discovering antigenic peptides and methods of activating lymphocytes as described throughout the specification.
After four hours, exchanged, unexchanged and non-fluorescent biotinylated HLA complexes were loaded onto Streptavidin coated capture beads. The HLA complex coated beads were analyzed for FITC Fluorescence on a Flow Cytometer.

HLA-A*02:01 [3] = molecular target: T1, HLA-A*02:01; assay: Peptide switching on peptide-HLA-A*02:01 complex with DNP-labelled initial peptide (Example 21); format: binding

Sequence: SLLPIMWQLY [Non-Immunogenic peptide antigen derived from TCL1] [listing 1 of 2 here]
half-life of peptide-HLA-A*02:01 complex (HLA-A*02:01 [1]): about 0.5 hours

Sequence: GAATKMAAV
suitability as in-place peptide (affinity and exchangeability) (HLA-A*02:01 [2]): most suitable in-place peptides

Sequence: SLYSYFQKV [Immunogenic peptide antigen derived from SLC45A2] [listing 1 of 2 here]
percent peptide switching (HLA-A*02:01 [3]): about 99%

Sequence: SLLPIMWQLY [Non-Immunogenic peptide antigen derived from TCL1] [listing 2 of 2 here]
percent peptide switching (HLA-A*02:01 [3]): about 90%

Sequence: SLYSYFQKV [Immunogenic peptide antigen derived from SLC45A2] [listing 2 of 2 here]
half-life of peptide-HLA-A*02:01 complex (HLA-A*02:01 [1]): about 17 hours

Continued, values first:

exchange efficiency (HLA-A*02:01 [2]): about 0.30
Sequence: LMYAKRAFV [TBA1A (Q71U36) 397-405; used as initial peptide and as incoming/displacing peptide]

exchange efficiency (HLA-A*02:01 [2]): about 0.65
Sequence: FLAIKKLYVG

exchange efficiency (HLA-A*02:01 [2]): about 1.0 | suitability as in-place peptide (affinity and exchangeability) (HLA-A*02:01 [2]): most suitable in-place peptides
Sequence: GMGQKDSYV [ACTB (P60709) 46-54]
